As to `Cc1c(COC(=O)c2cc(S(N)(=O)=O)c(Cl)cc2NCc2ccco2)no[n+]1[O-]` [Example 1, Benzoic acid, 5-(aminosulfonyl)-4-chloro-2-[(2-furanylmethyl)amino]-, (4-methyl-5-oxido-1,2,5-oxadiazol-3-yl)methyl ester], the melting point (usually the temperature, or range, at which the solid turns liquid) fell in the range of 182 to 183 °C.
To `Cc1c(COC(=O)COC(=O)c2cc(S(N)(=O)=O)c(Cl)cc2NCc2ccco2)no[n+]1[O-]` [Example 2, Benzoic acid, 5-(aminosulfonyl)-4-chloro-2-[(2-furanylmethyl)amino]-, 2-[(4-methyl-5-oxido-1,2,5-oxadiazol-3-yl)methoxy]-2-oxoethyl ester] belongs 112 to 115 °C; to `Cc1c(COC(=O)c2cc(S(N)(=O)=O)c(Cl)cc2N)no[n+]1[O-]` [Example 3, Benzoic acid, 2-amino-5-(aminosulfonyl)-4-chloro-, (4-methyl-5-oxido-1,2,5-oxadiazol-3-yl)methyl ester], 169 to 172 °C.

Values taken from patent US20080275093A1, “Diuretic Compounds Comprising Heterocyclic Nitric Oxide Donor Groups, Compositions and Methods of Use” (NitroMed, Inc., priority 2004, published 2008).
